Experiment [1] has as its target T1, His-His-USP7 (aa208-560, |C315A|) (Homo sapiens, UniProt Q93009, C315A).
T1 construct: His-His-USP7 (aa208-560, |C315A|); His-His (N)
Kind of experiment: Evaluation of the inhibition of USP7 by the Fluorescence Intensity (FLINT) readings. The format is biochemical. The conditions noted are these: 0.25 nM His-His-USP7, compound incubated 60 minutes at 30° C., 500 nM Ubiquitin-Rhodamine-110 substrate; 50% reduction in kinetic rate. The gist of the method: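 IC50 reflects 50% reduction in kinetic rate of rhodamine-110 release (Ex485/Em535, reads every 3 min over 21 min), normalised to DMSO and no-enzyme controls, from an 11-point 4-parameter fit. Substrate is 500 nM Ub-Rh110, added after 60 min, 30 °C preincubation of compound with 0.25 nM USP7 aa208–560 C315A. Buffer is Bicine pH 8.0 with 10% DMSO.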

Experiment [2] concerns Z138 mantle cell lymphoma tumour cell lines. Kind of experiment: In vitro cytotoxicity, MTT assay. The conditions noted are these: Z138 cells exposed to the test compounds for 96 hours, cell viability vs DMSO treated cells. The format is cell-based. The essentials: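 Z138 cells exposed to compounds for 96 hours, then MTT added for 4 hours. Viable cells quantified from formazan absorbance at 540 nm.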

The values below come from patent US20210221785A1, “AMINO-PYRIMIDONYL DERIVATIVES, A PROCESS FOR THEIR PREPARATION AND PHARMACEUTICAL COMPOSITIONS CONTAINING THEM” (LES LABORATOIRES SERVIER, priority 2018, published 2021).

T1 sequence (Q93009 208-560 C315A): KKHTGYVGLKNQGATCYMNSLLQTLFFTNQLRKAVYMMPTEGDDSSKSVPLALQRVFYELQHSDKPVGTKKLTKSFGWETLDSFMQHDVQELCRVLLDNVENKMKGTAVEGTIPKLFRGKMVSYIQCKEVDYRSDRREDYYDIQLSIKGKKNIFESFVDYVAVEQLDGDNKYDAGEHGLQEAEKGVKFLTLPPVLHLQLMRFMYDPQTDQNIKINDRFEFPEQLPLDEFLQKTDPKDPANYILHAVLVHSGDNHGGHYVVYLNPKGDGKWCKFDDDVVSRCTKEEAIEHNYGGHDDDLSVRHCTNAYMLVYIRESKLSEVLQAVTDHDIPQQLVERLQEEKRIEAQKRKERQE

Turning to `Nc1cccc(C#C[C@@]2(F)CC[C@@H](C(=O)N3CC[C@](O)(Cn4cnc(Oc5ccc(F)cc5)c(N)c4=O)C(F)(F)C3)[C@H](c3ccccc3)C2)n1` [Example 163, 5-amino-3-{[(4S)-1-[(1R,2R,4R)-4-[2-(6-aminopyridin-2-yl)ethynyl]-4-fluoro-2-phenylcyclohexanecarbonyl]-3,3-difluoro-4-hydroxypiperidin-4-yl]methyl}-6-(4-fluorophenoxy)-3,4-dihydropyrimidin-4-one], the IC50 came out at 52.4 nM in experiment [1] and 0.0277 µM in experiment [2] (Homo sapiens, Z-138, 96 h).
For the compound “5-amino-6-(3-chlorophenyl)-3-({1-[(1R,2R)-4,4-difluoro-2-phenylcyclohexane-1-carbonyl]-4-hydroxypiperidin-4-yl}methyl)pyrimidin-4(3H)-one [Example 13]”, the IC50 in experiment [1] came out at 97.5 nM; in experiment [2] it was 0.178 µM.
With `Nc1c(Oc2cccc(CO)c2)ncn(CC2(O)CCN(C(=O)[C@@H]3CCC(F)(F)C[C@H]3c3ccccc3)CC2)c1=O` [Example 28, 5-amino-3-({1-[(1R,2R)-4,4-difluoro-2-phenylcyclohexane-1-carbonyl]-4-hydroxypiperidin-4-yl}methyl)-6-[3-(hydroxymethyl)phenoxy]pyrimidin-4(3H)-one], the IC50 came out at 53 nM in experiment [1] and 0.052 µM in experiment [2] (Homo sapiens, Z-138, 96 h).
The corresponding values for `Nc1c(Oc2ccc3c(c2)CCNC3)ncn(CC2(O)CCN(C(=O)[C@@H]3CCC(F)(F)C[C@H]3c3ccccc3)CC2)c1=O` [Example 31, 5-amino-3-({1-[(1R,2R)-4,4-difluoro-2-phenylcyclohexane-1-carbonyl]-4-hydroxypiperidin-4-yl}methyl)-6-[(1,2,3,4-tetrahydroisoquinolin-6-yl)oxy]pyrimidin-4(3H)-one] are 47 nM and 0.648 µM.
For `Nc1c(Oc2ccc(C=O)cc2)ncn(CC2(O)CCN(C(=O)[C@@H]3CCC(F)(F)C[C@H]3c3ccccc3)CC2)c1=O` [Example 44] the same measures were 38.7 nM and 0.0736 µM.
For `Nc1c(Oc2ccc(F)cc2)ncn(CC2(O)CCN(C(=O)[C@@H]3CC=C(C#Cc4ncccn4)C[C@H]3c3ccccc3)CC2)c1=O` [Example 143, 5-amino-6-(4-fluorophenoxy)-3-[(4-hydroxy-1-{[(1R,6R)-6-phenyl-4-[2-(pyrimidin-2-yl)ethynyl]cyclohex-3-en-1-yl]carbonyl}piperidin-4-yl)methyl]pyrimidin-4-one] the same measures were 56.5 nM and 0.0787 µM.
Regarding `COc1cc(O)cc(Oc2ncn(CC3(O)CCN(C(=O)[C@@H]4CCC(F)(F)C[C@H]4c4ccccc4)CC3)c(=O)c2N)c1` [Example 15, 5-amino-3-({1-[(1R,2R)-4,4-difluoro-2-phenylcyclohexane-1-carbonyl]-4-hydroxypiperidin-4-yl}methyl)-6-(3-hydroxy-5-methoxyphenoxy)pyrimidin-4(3H)-one], the IC50 in experiment [1] is 23.5 nM; in experiment [2] (Homo sapiens, Z-138, 96 h) it was 0.0195 µM.
In the case of `N#Cc1ccc(Oc2ncn(CC3(O)CCN(C(=O)[C@@H]4CCC(F)(F)C[C@H]4c4ccccc4)CC3)c(=O)c2N)cc1` [Example 24, 4-{[5-amino-1-({1-[(1R,2R)-4,4-difluoro-2-phenylcyclohexane-1-carbonyl]-4-hydroxypiperidin-4-yl}methyl)-6-oxo-1,6-dihydropyrimidin-4-yl]oxy}benzonitrile], the IC50 in experiment [1] was found to be 30 nM; in experiment [2] (Homo sapiens, Z-138, 96 h), 0.165 µM.
As to `CO[C@@H]1CC[C@@](C#Cc2cc(C)cnn2)(C(=O)N2CC[C@](O)(Cn3cnc(Oc4ccc(F)cc4)c(N)c3=O)C(F)(F)C2)[C@@H](c2ccccc2)C1` [Example 169, 5-amino-3-{[(4S)-3,3-difluoro-4-hydroxy-1-[(1R,2R,4R)-4-methoxy-1-[2-(5-methylpyridazin-3-yl)ethynyl]-2-phenylcyclohexanecarbonyl]piperidin-4-yl]methyl}-6-(4-fluorophenoxy)-3,4-dihydropyrimidin-4-one], the 50% inhibitory concentration (IC50) in experiment [1] was 8.8 nM; in experiment [2] (Homo sapiens, Z-138, 96 h), 0.00218 µM.
The corresponding values for `NCc1ccc(Oc2ncn(CC3(O)CCN(C(=O)[C@@H]4CCC(F)(F)C[C@H]4c4ccccc4)CC3)c(=O)c2N)cc1F` [Example 65, 5-amino-6-[4-(aminomethyl)-3-fluorophenoxy]-3-({1-[(1R,2R)-4,4-difluoro-2-phenylcyclohexane-1-carbonyl]-4-hydroxypiperidin-4-yl}methyl)pyrimidin-4(3H)-one] are 10 nM and 0.386 µM.
The corresponding values for `Nc1c(Oc2cccc(Br)c2)ncn(CC2(O)CCN(C(=O)[C@@H]3CCC(F)(F)C[C@H]3c3ccccc3)CC2)c1=O` [Example 20, 5-amino-6-(3-bromophenoxy)-3-([1-{(1R,2R)-4,4-difluoro-2-phenylcyclohexane-1-carbonyl]-4-hydroxypiperidin-4-yl}methyl)pyrimidin-4(3H)-one] are 105 nM and 0.146 µM.
The corresponding values for `CO[C@@]1(C#Cc2cccnn2)CC[C@@H](C(=O)N2CCC(O)(Cn3cnc(Oc4ccc(F)cc4)c(N)c3=O)CC2)[C@H](c2ccccc2)C1` [Example 147, 5-amino-6-(4-fluorophenoxy)-3-[(4-hydroxy-1-{[(1R,2R,4S)-4-methoxy-2-phenyl-4-[2-(pyridazin-3-yl)ethynyl]cyclohexyl]carbonyl}piperidin-4-yl)methyl]pyrimidin-4-one] are 124 nM and 0.199 µM.
Regarding `Nc1c(Oc2ccc(OCCO)cc2)ncn(CC2(O)CCN(C(=O)[C@@H]3CCC(F)(F)C[C@H]3c3ccccc3)CC2)c1=O` [Example 33, 5-amino-3-({1-[(1R,2R)-4,4-difluoro-2-phenylcyclohexane-1-carbonyl]-4-hydroxypiperidin-4-yl}methyl)-6-[4-(2-hydroxyethoxy)phenoxy]pyrimidin-4(3H)-one], the IC50 was determined as 45.9 nM in experiment [1] and 0.0646 µM in experiment [2] (Homo sapiens, Z-138, 96 h).
On to `Nc1c(Oc2ccccc2)ncn(CC2(O)CCN(C(=O)[C@@H]3CC(F)(F)CC[C@H]3c3ccccc3)CC2)c1=O` [Example 82, 5-amino-3-({1-[(1R,2R)-5,5-difluoro-2-phenylcyclohexane-1-carbonyl]-4-hydroxypiperidin-4-yl}methyl)-6-phenoxypyrimidin-4(3H)-one], for which the IC50 in experiment [1] came out at 90.3 nM; in experiment [2] (Homo sapiens, Z-138, 96 h), 0.18 µM.
The corresponding values for `CC(C)c1ccc(Oc2ncn(CC3(O)CCN(C(=O)[C@@H]4CCC(F)(F)C[C@H]4c4ccccc4)CC3)c(=O)c2N)cc1O` [Example 120, 5-amino-3-({1-[(1R,2R)-4,4-difluoro-2-phenylcyclohexane-1-carbonyl]-4-hydroxypiperidin-4-yl}methyl)-6-[3-hydroxy-4-(propan-2-yl)phenoxy]pyrimidin-4(3H)-one] are 16.3 nM and 0.103 µM.
`Nc1c(Oc2ccc(F)cc2)ncn(CC2(O)CCN(C(=O)[C@@H]3CCC(F)(C#CC4CC4)C[C@H]3c3ccccc3)CC2)c1=O` (relative stereo) [Example 124, rel-5-amino-3-[(1 -{[(1R,2 R)-4-(2-cyclopropylethynyl)-4-fluoro-2-phenylcyclohexyl]carbonyl}-4-hydroxypiperidin-4-yl)methyl]-6-(4-fluorophenoxy)pyrimidin-1-one]: the IC50 in experiment [1] came out at 89.6 nM; in experiment [2] (Homo sapiens, Z-138, 96 h) it was 0.236 µM.
